Measured values published in the NIST ThermoML archive (doi:10.1021/je7006549).
Numbers after ± are expanded uncertainties.

Assay: mn = molality of the nth substance listed, in mol/kg
Settings: 101 kPa, Liquid

Cc1ccccc1C [1,2-dimethylbenzene] + CC1=CC(=O)c2ccccc2C1=O
m2 = 0
Settings | mass density [kg/m3] | viscosity [mPa·s]
303.15 K | 872.1 ± 0.7 | 0.7404 ± 0.011
308.15 K | 867.7 ± 0.8 | 0.69 ± 0.01
313.15 K | 864 ± 0.8 | 0.6451 ± 0.0099
318.15 K | 859.7 ± 0.8 | 0.6117 ± 0.0096
323.15 K | 855.5 ± 0.8 | 0.5711 ± 0.0093
328.15 K | 851.2 ± 0.8 | 0.5433 ± 0.0091
333.15 K | 847.1 ± 0.9 | 0.5105 ± 0.0088

Cc1cccc(C)c1 [1,3-dimethylbenzene] + CC1=CC(=O)c2ccccc2C1=O
m2 = 0
Settings | mass density [kg/m3] | viscosity [mPa·s]
303.15 K | 855.6 ± 0.7 | 0.549 ± 0.0092
308.15 K | 851.1 ± 0.8 | 0.5201 ± 0.009
313.15 K | 846.9 ± 0.8 | 0.4967 ± 0.0088
318.15 K | 842.4 ± 0.8 | 0.4817 ± 0.0087
323.15 K | 838.3 ± 0.8 | 0.444 ± 0.0085
328.15 K | 833.7 ± 0.9 | 0.435 ± 0.0084
333.15 K | 829.6 ± 0.9 | 0.413 ± 0.0082

Cc1ccc(C)cc1 [1,4-dimethylbenzene] + CC1=CC(=O)c2ccccc2C1=O
m2 = 0
Settings | mass density [kg/m3] | viscosity [mPa·s]
303.15 K | 852 ± 0.7 | 0.5726 ± 0.0093
308.15 K | 847.7 ± 0.7 | 0.5374 ± 0.009
313.15 K | 843.2 ± 0.8 | 0.5178 ± 0.0089
318.15 K | 838.7 ± 0.8 | 0.4882 ± 0.0087
323.15 K | 834.5 ± 0.8 | 0.4595 ± 0.0085
328.15 K | 829.9 ± 0.8 | 0.4439 ± 0.0084
333.15 K | 825.6 ± 0.9 | 0.4189 ± 0.0082

CC1=CC(=O)c2ccccc2C1=O [2-methyl-1,4-naphthalenedione] + CCc1ccccc1
Settings | mass density [kg/m3] | viscosity [mPa·s]
303.15 K, m1 = 0.0451 | 859.9 ± 0.7 | 0.6083 ± 0.0096
303.15 K, m1 = 0.0903 | 861.8 ± 0.7 | 0.6164 ± 0.0096
303.15 K, m1 = 0.1354 | 863.7 ± 0.7 | 0.6218 ± 0.0097
303.15 K, m1 = 0.1805 | 865.6 ± 0.7 | 0.6317 ± 0.0098
303.15 K, m1 = 0.2256 | 867.5 ± 0.7 | 0.6333 ± 0.0098
303.15 K, m1 = 0.271 | 869.4 ± 0.7 | 0.6361 ± 0.0098
308.15 K, m1 = 0.0451 | 855.4 ± 0.7 | 0.5735 ± 0.0093
308.15 K, m1 = 0.0903 | 857.3 ± 0.7 | 0.5794 ± 0.0094
308.15 K, m1 = 0.1354 | 859.2 ± 0.7 | 0.5853 ± 0.0094
308.15 K, m1 = 0.1805 | 861.1 ± 0.7 | 0.5893 ± 0.0094
308.15 K, m1 = 0.2256 | 863 ± 0.7 | 0.5948 ± 0.0095
308.15 K, m1 = 0.271 | 864.9 ± 0.8 | 0.5991 ± 0.0095
313.15 K, m1 = 0.0451 | 851.4 ± 0.8 | 0.5439 ± 0.0091
313.15 K, m1 = 0.0903 | 853.3 ± 0.8 | 0.5484 ± 0.0091
313.15 K, m1 = 0.1354 | 855.2 ± 0.8 | 0.5543 ± 0.0092
313.15 K, m1 = 0.1805 | 857.1 ± 0.8 | 0.557 ± 0.0092
313.15 K, m1 = 0.2256 | 859 ± 0.8 | 0.5611 ± 0.0092
313.15 K, m1 = 0.271 | 860.9 ± 0.8 | 0.5673 ± 0.0093
318.15 K, m1 = 0.0451 | 846.6 ± 0.8 | 0.5104 ± 0.0088
318.15 K, m1 = 0.0903 | 848.5 ± 0.8 | 0.5148 ± 0.0089
318.15 K, m1 = 0.1354 | 850.4 ± 0.8 | 0.5192 ± 0.0089
318.15 K, m1 = 0.1805 | 852.3 ± 0.8 | 0.5241 ± 0.0089
318.15 K, m1 = 0.2256 | 854.2 ± 0.8 | 0.5283 ± 0.009
318.15 K, m1 = 0.271 | 856.1 ± 0.8 | 0.533 ± 0.009
323.15 K, m1 = 0.0451 | 842.4 ± 0.8 | 0.4832 ± 0.0086
323.15 K, m1 = 0.0903 | 844.3 ± 0.8 | 0.4881 ± 0.0087
323.15 K, m1 = 0.1354 | 846.2 ± 0.8 | 0.4937 ± 0.0087
323.15 K, m1 = 0.1805 | 848.1 ± 0.8 | 0.4969 ± 0.0087
323.15 K, m1 = 0.2256 | 850 ± 0.8 | 0.5015 ± 0.0088
323.15 K, m1 = 0.271 | 851.9 ± 0.8 | 0.5054 ± 0.0088
328.15 K, m1 = 0.0451 | 837.8 ± 0.8 | 0.4615 ± 0.0085
328.15 K, m1 = 0.0903 | 839.7 ± 0.8 | 0.4648 ± 0.0085
328.15 K, m1 = 0.1354 | 841.6 ± 0.8 | 0.4715 ± 0.0086
328.15 K, m1 = 0.1805 | 843.5 ± 0.8 | 0.474 ± 0.0086
328.15 K, m1 = 0.2256 | 845.4 ± 0.8 | 0.4758 ± 0.0086
328.15 K, m1 = 0.271 | 847.3 ± 0.8 | 0.4806 ± 0.0086
333.15 K, m1 = 0.0451 | 833.5 ± 0.9 | 0.4405 ± 0.0083
333.15 K, m1 = 0.0903 | 835.4 ± 0.9 | 0.444 ± 0.0084
333.15 K, m1 = 0.1354 | 837.3 ± 0.9 | 0.4475 ± 0.0084
333.15 K, m1 = 0.1805 | 839.2 ± 0.9 | 0.451 ± 0.0084
333.15 K, m1 = 0.2256 | 841.1 ± 0.9 | 0.4546 ± 0.0084
333.15 K, m1 = 0.271 | 843 ± 0.9 | 0.4581 ± 0.0085

CC1=CC(=O)c2ccccc2C1=O [2-methyl-1,4-naphthalenedione] + Cc1ccc(C)cc1
Settings | mass density [kg/m3] | viscosity [mPa·s]
303.15 K, m1 = 0.0454 | 854 ± 0.7 | 0.5859 ± 0.0094
303.15 K, m1 = 0.0902 | 856 ± 0.7 | 0.5904 ± 0.0094
303.15 K, m1 = 0.1361 | 858.1 ± 0.7 | 0.5958 ± 0.0095
303.15 K, m1 = 0.1815 | 860.1 ± 0.7 | 0.6048 ± 0.0096
303.15 K, m1 = 0.2267 | 862.1 ± 0.7 | 0.6092 ± 0.0096
303.15 K, m1 = 0.2724 | 864.1 ± 0.7 | 0.6161 ± 0.0096
308.15 K, m1 = 0.0454 | 849.7 ± 0.7 | 0.5528 ± 0.0092
308.15 K, m1 = 0.0902 | 851.7 ± 0.7 | 0.5581 ± 0.0092
308.15 K, m1 = 0.1361 | 853.8 ± 0.7 | 0.5631 ± 0.0092
308.15 K, m1 = 0.1815 | 855.8 ± 0.7 | 0.5716 ± 0.0093
308.15 K, m1 = 0.2267 | 857.8 ± 0.7 | 0.5748 ± 0.0093
308.15 K, m1 = 0.2724 | 859.8 ± 0.7 | 0.582 ± 0.0094
313.15 K, m1 = 0.0454 | 845.2 ± 0.8 | 0.5222 ± 0.0089
313.15 K, m1 = 0.0902 | 847.2 ± 0.8 | 0.5274 ± 0.009
313.15 K, m1 = 0.1361 | 849.3 ± 0.8 | 0.5349 ± 0.009
313.15 K, m1 = 0.1815 | 851.3 ± 0.8 | 0.5396 ± 0.0091
313.15 K, m1 = 0.2267 | 853.3 ± 0.8 | 0.543 ± 0.0091
313.15 K, m1 = 0.2724 | 855.3 ± 0.8 | 0.5477 ± 0.0091
318.15 K, m1 = 0.0454 | 840.7 ± 0.8 | 0.4999 ± 0.0088
318.15 K, m1 = 0.0902 | 842.7 ± 0.8 | 0.5047 ± 0.0088
318.15 K, m1 = 0.1361 | 844.8 ± 0.8 | 0.5097 ± 0.0088
318.15 K, m1 = 0.1815 | 846.8 ± 0.8 | 0.5152 ± 0.0089
318.15 K, m1 = 0.2267 | 848.8 ± 0.8 | 0.5183 ± 0.0089
318.15 K, m1 = 0.2724 | 850.8 ± 0.8 | 0.5242 ± 0.0089
323.15 K, m1 = 0.0454 | 836.5 ± 0.8 | 0.4686 ± 0.0085
323.15 K, m1 = 0.0902 | 838.5 ± 0.8 | 0.4737 ± 0.0086
323.15 K, m1 = 0.1361 | 840.6 ± 0.8 | 0.477 ± 0.0086
323.15 K, m1 = 0.1815 | 842.6 ± 0.8 | 0.4824 ± 0.0086
323.15 K, m1 = 0.2267 | 844.6 ± 0.8 | 0.4864 ± 0.0087
323.15 K, m1 = 0.2724 | 846.6 ± 0.8 | 0.4907 ± 0.0087
328.15 K, m1 = 0.0454 | 831.9 ± 0.8 | 0.4467 ± 0.0084
328.15 K, m1 = 0.0902 | 833.9 ± 0.8 | 0.4509 ± 0.0084
328.15 K, m1 = 0.1361 | 836 ± 0.8 | 0.456 ± 0.0085
328.15 K, m1 = 0.1815 | 838 ± 0.8 | 0.4615 ± 0.0085
328.15 K, m1 = 0.2267 | 840 ± 0.8 | 0.4633 ± 0.0085
328.15 K, m1 = 0.2724 | 842 ± 0.8 | 0.4698 ± 0.0086
333.15 K, m1 = 0.0454 | 827.6 ± 0.9 | 0.4225 ± 0.0082
333.15 K, m1 = 0.0902 | 829.6 ± 0.9 | 0.4258 ± 0.0082
333.15 K, m1 = 0.1361 | 831.7 ± 0.9 | 0.4309 ± 0.0083
333.15 K, m1 = 0.1815 | 833.7 ± 0.9 | 0.4364 ± 0.0083
333.15 K, m1 = 0.2267 | 835.7 ± 0.9 | 0.4384 ± 0.0083
333.15 K, m1 = 0.2724 | 837.7 ± 0.9 | 0.4429 ± 0.0084
